ChEMBL document CHEMBL1133846, “The discovery of anthranilic acid-based MMP inhibitors. Part 3: incorporation of basic amines” (Bioorg Med Chem Lett, 2001)
pIC50: −log10 of the molar value. “And” between values parts separate entries of the source, which are not always exact repeats. Equal entries are not always repeated.

Experiments:
[1] = target: Matrix metalloproteinase-9 (Homo sapiens, UniProt P14780); assay: In vitro inhibition of Matrix metalloprotease-9.
[2] = target: T1, Collagenase 3 (Homo sapiens, UniProt P45452); assay: In vitro inhibition of Matrix metalloprotease-13.
[3] = target: T2, Disintegrin and metalloproteinase domain-containing protein 17 (Homo sapiens, UniProt P78536); assay: In vitro inhibition of TNF-alpha converting enzyme.
[4] = target: T3, Interstitial collagenase (Homo sapiens, UniProt P03956); assay: In vitro inhibition of Matrix metalloprotease-1.
T3 sequence (P03956 whole entry): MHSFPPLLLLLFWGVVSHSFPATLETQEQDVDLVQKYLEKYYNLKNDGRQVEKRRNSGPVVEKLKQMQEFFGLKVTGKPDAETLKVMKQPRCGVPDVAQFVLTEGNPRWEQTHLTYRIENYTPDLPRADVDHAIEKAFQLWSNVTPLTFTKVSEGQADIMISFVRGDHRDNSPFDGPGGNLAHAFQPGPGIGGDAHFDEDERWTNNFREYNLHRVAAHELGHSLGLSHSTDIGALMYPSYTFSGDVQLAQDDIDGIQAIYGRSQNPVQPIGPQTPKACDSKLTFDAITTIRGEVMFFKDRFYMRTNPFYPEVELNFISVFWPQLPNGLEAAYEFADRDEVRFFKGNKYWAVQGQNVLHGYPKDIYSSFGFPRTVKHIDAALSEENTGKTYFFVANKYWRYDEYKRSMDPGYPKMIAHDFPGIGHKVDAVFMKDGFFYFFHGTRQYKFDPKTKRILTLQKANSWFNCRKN

[5] = target: T2, Disintegrin and metalloproteinase domain-containing protein 17; assay: Inhibition of TNFalpha converting enzyme, TACE
[6] = target: T3, Interstitial collagenase; assay: Inhibition of Matrix metalloprotease-1
[7] = target: T1, Collagenase 3
Description: Inhibition of Matrix metalloprotease-13

Sequence of Matrix metalloproteinase-9 (P14780 whole entry): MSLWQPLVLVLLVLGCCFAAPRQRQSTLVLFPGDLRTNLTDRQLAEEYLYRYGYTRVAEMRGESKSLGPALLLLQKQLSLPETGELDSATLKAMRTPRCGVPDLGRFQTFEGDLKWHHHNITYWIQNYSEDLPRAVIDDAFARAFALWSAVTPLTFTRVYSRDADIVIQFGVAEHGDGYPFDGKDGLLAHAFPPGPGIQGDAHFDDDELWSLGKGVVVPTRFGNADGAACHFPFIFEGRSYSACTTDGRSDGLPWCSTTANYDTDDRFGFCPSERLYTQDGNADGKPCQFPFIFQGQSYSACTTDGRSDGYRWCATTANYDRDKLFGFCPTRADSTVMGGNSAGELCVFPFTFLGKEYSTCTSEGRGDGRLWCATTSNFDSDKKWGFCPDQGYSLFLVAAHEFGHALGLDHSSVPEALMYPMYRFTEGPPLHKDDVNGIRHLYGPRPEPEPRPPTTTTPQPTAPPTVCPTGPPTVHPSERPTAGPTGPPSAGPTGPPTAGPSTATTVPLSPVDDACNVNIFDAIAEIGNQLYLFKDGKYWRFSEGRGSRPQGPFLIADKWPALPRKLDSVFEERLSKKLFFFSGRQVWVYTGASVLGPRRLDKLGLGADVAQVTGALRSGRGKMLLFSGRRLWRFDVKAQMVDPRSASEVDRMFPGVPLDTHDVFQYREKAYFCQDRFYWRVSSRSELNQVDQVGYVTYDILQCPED
T2 sequence (P78536 whole entry, the tested form may be a part): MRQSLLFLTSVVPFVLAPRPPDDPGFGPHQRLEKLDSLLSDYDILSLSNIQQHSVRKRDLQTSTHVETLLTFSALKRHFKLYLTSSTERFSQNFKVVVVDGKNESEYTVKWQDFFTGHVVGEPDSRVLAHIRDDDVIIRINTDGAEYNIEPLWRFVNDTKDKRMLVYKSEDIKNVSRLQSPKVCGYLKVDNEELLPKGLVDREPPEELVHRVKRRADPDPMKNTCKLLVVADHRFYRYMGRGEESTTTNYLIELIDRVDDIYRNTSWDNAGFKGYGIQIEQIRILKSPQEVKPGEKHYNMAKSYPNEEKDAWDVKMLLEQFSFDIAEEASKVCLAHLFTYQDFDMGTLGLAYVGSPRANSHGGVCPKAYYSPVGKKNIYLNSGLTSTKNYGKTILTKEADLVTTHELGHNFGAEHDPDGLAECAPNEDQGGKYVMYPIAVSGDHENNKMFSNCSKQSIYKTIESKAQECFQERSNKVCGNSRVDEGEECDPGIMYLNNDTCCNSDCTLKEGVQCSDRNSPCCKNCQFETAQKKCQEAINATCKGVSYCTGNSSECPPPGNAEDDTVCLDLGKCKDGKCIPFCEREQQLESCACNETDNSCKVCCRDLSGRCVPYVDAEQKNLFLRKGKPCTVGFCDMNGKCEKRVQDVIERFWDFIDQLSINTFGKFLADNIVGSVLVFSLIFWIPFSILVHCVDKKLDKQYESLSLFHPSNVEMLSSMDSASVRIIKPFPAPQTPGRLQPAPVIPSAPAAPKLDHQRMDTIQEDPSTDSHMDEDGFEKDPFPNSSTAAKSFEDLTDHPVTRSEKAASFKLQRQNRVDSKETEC

SMILES | pIC50 [1] | pIC50 [2] | pIC50 [3] | pIC50 [4] | pIC50 [5] | pIC50 [6] | pIC50 [7]
COc1ccc(S(=O)(=O)N(Cc2ccc(OCCN3CCCCC3)cc2)c2c(C)cccc2C(=O)NO)cc1 | 8.15 | – | – | – | – | – | –
CCN(CC)CC#CCN(c1c(C)cc(Br)cc1C(=O)NO)S(=O)(=O)c1ccc(OC)cc1 | 7.85 | 8.15 | 7.44 | 6.82 | – | – | –
COc1ccc(S(=O)(=O)N(C)c2c(CN3CCN(C)CC3)cccc2C(=O)NO)cc1 | 9.00 | – | – | – | – | – | –
COC(=O)C1CCCN1Cc1cccc(C(=O)NO)c1N(C)S(=O)(=O)c1ccc(OC)cc1 (stereo not drawn) | 8.30 | 8.22 | 6.70 | 6.29 | – | – | –
COc1ccc(S(=O)(=O)N(C)c2c(CN3CCN(C)CC3)cc(-c3ccc4ccccc4c3)cc2C(=O)NO)cc1 | 8.70 | 8.52 | 7.31 | 6.46 | – | – | –
COc1ccc(S(=O)(=O)N(Cc2ccc(CN(C)C)cc2)c2c(C)cccc2C(=O)NO)cc1 | 8.52 | – | – | – | – | – | –
COc1ccc(S(=O)(=O)N(C)c2c(CN3CCN(C(=O)OC(C)(C)C)CC3)cc(Br)cc2C(=O)NO)cc1 | 8.15 | 8.22 | 7.20 | 6.17 | – | – | –
CN1CCN(Cc2cc(Br)cc(C(=O)NO)c2N(C)S(=O)(=O)c2ccc(Oc3ccc(Cl)cc3)cc2)CC1 | 9.30 | – | – | – | 7.10 | 7.09 | 9.15
COc1ccc(S(=O)(=O)N(C)c2c(CN3CCN(C)CC3)cc(Br)cc2C(=O)NO)cc1 | 8.70 | – | – | 6.71 | – | – | –
CCN(CC)Cc1cccc(C(=O)NO)c1N(C)S(=O)(=O)c1ccc(OC)cc1 | 8.10 | 7.08 | – | 6.13 | – | – | –
COc1ccc(S(=O)(=O)N(C)c2c(CN3CCN(C)CC3)cc(-c3ccc(OC(F)(F)F)cc3)cc2C(=O)NO)cc1 | 8.70 | 8.40 | 6.68 | 6.13 | – | – | –
COc1ccc(S(=O)(=O)N(Cc2ccc(N3CCN(C)CC3)cc2)c2c(C)cccc2C(=O)NO)cc1 | 8.15 | – | – | – | – | – | –
CN1CCN(Cc2cccc(C(=O)NO)c2N(C)S(=O)(=O)c2ccc(Oc3ccc(Cl)cc3)cc2)CC1 | 9.00 | 9.10 | 6.91 | 6.81 | – | – | –
COc1ccc(S(=O)(=O)N(CC#CCN2CCN(C)CC2)c2c(C)cc(Br)cc2C(=O)NO)cc1 | 8.00 | 8.22 | 7.59 | – | – | – | –
COc1ccc(S(=O)(=O)N(C)c2c(CN3CCN(c4ccccc4)CC3)cc(Br)cc2C(=O)NO)cc1 | 8.52 | 8.52 | 7.06 | 6.35 | – | – | –
COc1ccc(S(=O)(=O)N(Cc2cccnc2)c2c(C)cccc2C(=O)NO)cc1 | – | – | 6.45 and 6.19 | 6.48 and 6.41 | – | – | –
COc1ccc(S(=O)(=O)N(Cc2ccc(OCCN3CCCCC3)cc2)c2c(C)cc(Br)cc2C(=O)NO)cc1 | 8.70 | 8.52 | – | – | – | – | –
